Measurements reported in paper PMC13198932, “Pyrazolone-based ERO1 inhibitors in ERO1-driven triple-negative breast cancer and SEPN1-related myopathy: Structure–activity relationship and therapeutic potential” (Pharmacological research, 2025).
Entries after “also recorded” stand apart in the source; their conditions may differ. Like-named read-outs stand apart in the source and are kept apart here.

Columns and labels:
recombinant ERO1A [1] = biological target: T1, recombinant ERO1A (Mus musculus, UniProt Q8R180); assay: AUR-based kinetic assay of ERO1A activity (recombinant ERO1A and PDIA1, HRP, Amplex Ultra Red); type: biochemical; conditions: for IC50: Table 1 in Fig. 3
T1 construct: GST-SMT3-mouse ERO1A (residues 43–464); GST-SMT3 (GST-SUMO) (N, cleaved yes); made in house; host or cells: E. coli Rosetta DE3 (Novagen)
T1 sequence (Q8R180 43-464): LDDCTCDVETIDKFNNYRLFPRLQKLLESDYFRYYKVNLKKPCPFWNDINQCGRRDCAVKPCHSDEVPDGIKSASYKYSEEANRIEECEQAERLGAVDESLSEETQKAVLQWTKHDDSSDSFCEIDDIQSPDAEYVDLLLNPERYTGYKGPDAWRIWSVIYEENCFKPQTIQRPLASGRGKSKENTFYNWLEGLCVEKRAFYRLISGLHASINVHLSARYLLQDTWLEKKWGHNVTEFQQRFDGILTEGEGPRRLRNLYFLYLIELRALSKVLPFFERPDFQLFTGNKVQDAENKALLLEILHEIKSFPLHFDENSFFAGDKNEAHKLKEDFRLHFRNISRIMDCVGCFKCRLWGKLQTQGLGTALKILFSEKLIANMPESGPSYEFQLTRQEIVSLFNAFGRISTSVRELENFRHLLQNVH
Description: A GST-SMT3-mouse ERO1A (residues 43–464) and His-tagged PDIA1 [30] were expressed in the Rosetta DE3 bacteria (Novagen) and purified as described in [29, 31]. The GST-SMT3 and His tags were cleaved using Ulp protease (Z03691, GenScript) and thrombin protease (T6884, Merck), respectively. Successful tag removal was confirmed by a shift to a lower molecular weight for ERO1A on SDS-PAGE and by the absence of signal in anti-His immunoblotting for PDIA1.
The kinetic assay of ERO1A activity is based on a reaction involving recombinant ERO1A and PDIA1 proteins, horseradish peroxidase (Worthington), and 5 μM Amplex Ultra Red, as detailed in [29]. The effect of ERO1A inhibitors was evaluated by preincubating the compounds with ERO1A and measuring the inhibition of the linear reaction rate, and the corresponding IC50 values were determined using Prism 10 (GraphPad).
EN460 and 16 newly synthesized derivatives (I24–I40) (except for I31, which was not evaluated due to potential toxicity associated with its CN group) were evaluated for their ability to inhibit ERO1-dependent AUR fluorescence using a kinetic assay with recombinant ERO1 and PDIA1, as previously described (Figs. 3A and 3B). Raw kinetic data showing AUR fluorescence over time in reactions containing reduced ERO1, PDIA1 and EN460-derivatives are presented in Fig. Sup.1 A and Sup. 1B. Reaction rates, measured in presence or absence of varying concentrations of each compound, were used to calculate IC50 values, defined as the concentration required to inhibit 50 % of ERO1 enzymatic activity (Figs. 3C, 3D and Fig. Sup1C).

recombinant ERO1A [2] = biological target: T1, recombinant ERO1A; design: method as in PMID 39962052; conditions: SAR of I1–I23, Fig. 8A; cited from earlier work
[3] = biological target: T2, Human monoamine oxidase A (Mao-A) (Homo sapiens, UniProt P21397); assay: Mao-A activity assay (commercial kit, p-tyramine, H2O2 fluorimetry); type: biochemical; conditions: 25 μM, 10 min incubation
T2 construct: purchased Sigma-Aldrich
T2 sequence (P21397 1-527): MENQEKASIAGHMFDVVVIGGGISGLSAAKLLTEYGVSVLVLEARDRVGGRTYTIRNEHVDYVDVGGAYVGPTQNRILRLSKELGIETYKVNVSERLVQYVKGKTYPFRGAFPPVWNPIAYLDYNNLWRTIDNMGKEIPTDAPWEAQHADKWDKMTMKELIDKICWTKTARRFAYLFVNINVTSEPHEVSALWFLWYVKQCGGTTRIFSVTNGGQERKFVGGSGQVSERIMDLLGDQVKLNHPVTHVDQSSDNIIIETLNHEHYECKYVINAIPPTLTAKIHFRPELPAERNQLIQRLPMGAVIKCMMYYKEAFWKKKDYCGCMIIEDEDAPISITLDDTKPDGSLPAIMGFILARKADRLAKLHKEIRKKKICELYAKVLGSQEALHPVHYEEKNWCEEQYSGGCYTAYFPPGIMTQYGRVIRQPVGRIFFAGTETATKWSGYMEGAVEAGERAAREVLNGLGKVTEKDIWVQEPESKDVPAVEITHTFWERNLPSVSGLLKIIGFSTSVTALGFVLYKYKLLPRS
Experimental: Mao-A activity was measured using a commercial assay kit according to the manufacturer’s instructions. Mao-A (0.837 μM) was incubated with vehicle (1 % DMSO), Clorgyline (50 μM), or various concentrations (1, 5, or 25 μM) of EN460, I2, I26, or I29 for 10 min. Mao-A catalyzes the oxidative deamination of p-tyramine, generating H2O2, which was quantified fluorimetrically (λex= 530; λem= 585 nm). Mao-A activity is presented as a percentage of the vehicle control.

recombinant PDI = recombinant PDI (Homo sapiens, UniProt P07237); assay: PDI activity assay (insulin transhydrogenase / insulin turbidity assay); type: biochemical; conditions: 25 μM, 15 min incubation
Experimental: PDI activity was assessed using an insulin transhydrogenase assay. Bovine insulin (1 mg/mL) in sodium phosphate buffer, pH 7.0, containing 2 mM EDTA, was incubated with 1.4 μM recombinant PDI in the presence of vehicle (1 % DMSO) or various concentrations of isoquercetin (30 or 60 μM), EN460, I2, I26, or I29 (1, 5, or 25 μM) for 15 min. The turbidimetric assay of insulin disulfide reduction by PDI was initiated by adding 1 mM dithiothreitol, and the reaction was monitored at 650 nm for 80 min. PDI activity is presented as a percentage of the vehicle control.

MDAMB231 cells = assay: MTS assay of metabolic activity in MDAMB231 cells; type: cell-based, human; conditions: MDAMB231, dose-response, 24 h, 1 % FBS
Experimental: Six thousand cells (MDAMB231 and E0771) per well were seeded in 96-well plates and cultured in medium containing 1 % FBS. Cells were treated with varying concentrations of compounds and, after 24 h, incubated with MTS [3-(4,5-dimethylthiazol-2-yl)-5-(3-carboxymethoxyphenyl)-2-(4 sulfophenyl)2Htetrazolium]and PMS (phenazine methosulfate), following the instructions of the CellTiter 96® Aqueous Non-Radioactive Cell Proliferation Assay (Promega). Measurements were performed using a TECAN Infinite M200 plate reader with […] at 490 nm.

[4] = biological target: T3, ERO1 in MDA-MB-231 breast cancer cells (Homo sapiens, UniProt Q96HE7); assay: ERO1 redox state by non-reducing immunoblot in MDA-MB-231 cells; type: cell-based; conditions: MDA-MB-231, 1–100 μM, in physiological solution or dissolved in DMSO, Fig. 4B
T3 construct: Non-reducing Immunoblot of endogenous ERO1 in lysates of vehicle-treated MDAMB231; endogenous in cells; host or cells: MDA-MB-231
T3 sequence (Q96HE7 24-468): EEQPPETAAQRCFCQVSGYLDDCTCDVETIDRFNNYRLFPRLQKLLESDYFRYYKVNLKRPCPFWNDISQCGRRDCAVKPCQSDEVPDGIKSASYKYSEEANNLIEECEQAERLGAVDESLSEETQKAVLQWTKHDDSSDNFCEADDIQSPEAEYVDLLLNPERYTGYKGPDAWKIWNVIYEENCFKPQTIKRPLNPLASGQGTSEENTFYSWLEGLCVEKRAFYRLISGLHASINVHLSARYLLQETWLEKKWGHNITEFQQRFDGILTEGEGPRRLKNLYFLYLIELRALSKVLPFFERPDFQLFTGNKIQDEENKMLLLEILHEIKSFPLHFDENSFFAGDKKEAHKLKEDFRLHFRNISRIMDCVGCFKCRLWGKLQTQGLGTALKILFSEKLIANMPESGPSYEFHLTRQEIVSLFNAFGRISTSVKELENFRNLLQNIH
Experimental: MDAMB231 and E0771 cells were maintained in Dulbecco’s Modified Eagle’s Medium supplemented with 1 % fetal bovine serum and seeded at 70 % confluency in six-well plates one day prior to the experiment. Cells were treated with DTT (10 mM) and/or ERO1A inhibitors for 1–5 h. At the time of collection, phosphate-buffered saline containing 10 mM NEM was added, and cells were incubated on ice for 10 min in lysis buffer (50 mM Tris-HCl, pH 7.4; 150 mM NaCl; 1 % Triton X-100; 0.1 % SDS; 1 % sodium deoxycholate; protease inhibitors; and 10 mM NEM). Protein concentrations were determined using the BCA assay, and equal amounts of protein were separated by non-reducing SDS-PAGE followed by immunoblotting with a polyclonal antibody against ERO1A [33].

[5] = compounds dissolved in DMSO, preincubated with ERO1A, NA stands for not active, read-out: IC50
[6] = logarithm of IC50 in μM, compounds dissolved in DMSO, read-out: Log IC50 (confidence intervals) (converted)

Chain of recombinant PDI (P07237 18-508, species assumed): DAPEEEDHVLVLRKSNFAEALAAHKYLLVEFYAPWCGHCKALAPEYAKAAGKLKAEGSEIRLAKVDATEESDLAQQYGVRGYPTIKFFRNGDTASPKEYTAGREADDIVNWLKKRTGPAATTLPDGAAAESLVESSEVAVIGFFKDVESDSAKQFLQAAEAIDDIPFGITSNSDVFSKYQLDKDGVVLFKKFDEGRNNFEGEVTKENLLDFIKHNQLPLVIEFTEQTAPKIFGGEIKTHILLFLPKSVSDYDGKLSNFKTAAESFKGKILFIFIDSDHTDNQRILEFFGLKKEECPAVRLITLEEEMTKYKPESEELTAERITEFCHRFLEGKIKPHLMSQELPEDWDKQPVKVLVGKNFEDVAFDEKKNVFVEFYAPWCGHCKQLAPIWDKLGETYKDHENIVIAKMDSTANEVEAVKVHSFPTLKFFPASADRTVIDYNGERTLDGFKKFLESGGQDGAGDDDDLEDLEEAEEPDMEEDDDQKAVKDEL

Row | SMILES | ERO1 inhibitory activity (in words) (recombinant ERO1A [1]; compounds dissolved in DMSO) | IC50 (recombinant ERO1A [1]; [5]) [µM] | IC50 (recombinant ERO1A [1]; [6]) [µM] | other results
1 | Cc1ccccc1N1N=C(C(F)(F)F)/C(=C\c2ccc(-c3ccccc3)o2)C1=O [I25] | lowest potency | 17.7 | 17.8 | 
2 | O=C1/C(=C/c2ccc(-c3ccccc3)o2)C(C(F)(F)F)=NN1c1cccnc1 [I32] |  | 19.1 | 19.1 | 
3 | O=C(O)c1cccc(N2N=C(C(F)(F)F)/C(=C\c3ccc(-c4ccccc4)o3)C2=O)c1 [I3] |  |  |  | ERO1 inhibitory activity (in words) (recombinant ERO1A [2]): retained activity; IC50 (recombinant ERO1A [2]): 3.5 µM
4 | COc1cccc(-c2ccc(/C=C3/C(=O)N(c4ccc(Cl)c(C(=O)O)c4)N=C3C(F)(F)F)o2)c1 [I39] | loss of activity | 10.5 |  | 
5 | O=C(O)c1cc(N2N=C(C(F)(F)F)/C(=C\c3ccc(-c4ccccc4)s3)C2=O)ccc1Cl [I40] | reduced activity | 12 |  | 
6 | O=C(O)c1cc(N2N=C(C(F)(F)F)/C(=C\c3ccc(-c4cccc(C(F)(F)F)c4)o3)C2=O)ccc1Cl [I37] | did not significantly affect inhibitory activity compared to EN460; also recorded: maintained the potency |  | 5.62 | 
7 | Cc1cccc(C)c1N1N=C(C(F)(F)F)/C(=C\c2ccc(-c3ccccc3)o2)C1=O [I26] |  |  | 6.46 | Mao-A activity (percentage of the vehicle control) [3]: inhibited Mao-A activity; PDI activity (percentage of the vehicle control) (recombinant PDI): inhibited PDI activity
8 | O=C(O)c1cc(N2N=C(c3ccccc3)/C(=C\c3ccc(-c4ccccc4)o3)C2=O)ccc1Cl [I10] |  |  |  | ERO1 inhibitory activity (in words) (recombinant ERO1A [2]): abolished the activity
9 | O=C1/C(=C/c2ccc(-c3ccccc3)o2)C(C(F)(F)F)=NN1c1ccccc1Cl [I28] |  |  | 4.79 | 
10 | COC(=O)c1cc(N2N=C(C(F)(F)F)/C(=C\c3ccc(-c4ccccc4)o3)C2=O)ccc1Cl [I6] |  |  |  | ERO1 inhibitory activity (in words) (recombinant ERO1A [2]): Inactive
11 | O=C(O)c1cc(N2N=C(C(F)(F)F)/C(=C\c3ccc(-c4cccc(F)c4)o3)C2=O)ccc1Cl [I36] | did not significantly affect inhibitory activity compared to EN460; also recorded: maintained the potency |  |  | 
12 | O=C1/C(=C/c2ccc(-c3ccccc3)o2)C(C(F)(F)F)=NN1c1cccc(S(=O)(=O)O)c1 [I34] | retained activity | 5.6 |  | IC50 / potency relative to EN460 (recombinant ERO1A [1]; compared with EN460): comparable to EN460; ERO1 inhibitory activity (in words) (recombinant ERO1A [1]; compound in aqueous solution (physiological solution)): completely inactive; metabolic activity (MTS assay) (MDAMB231 cells): inactive; ERO1 reduction / activity in cells [4]: failed to reduce ERO1A; also recorded: completely inactive in cells; ERO1 reduction / activity in cells ([4]; listed as I34(DMSO)): inactive in cells
13 | O=C1/C(=C/c2ccc(-c3ccccc3)o2)C(C(F)(F)F)=NN1c1cc(F)ccc1F [I30] |  | 10.7 | 10.7 | 
14 | O=C(O)c1cc(N2N=C(C(F)(F)F)/C(=C\c3ccc(-c4ccc(F)cc4)o3)C2=O)ccc1Cl [I38] | loss of activity |  |  | 
15 | CC1=NN(c2ccc(Cl)c(C(=O)O)c2)C(=O)/C1=C/c1ccc(-c2ccccc2)o1 [I14] |  |  |  | ERO1 inhibitory activity (in words) (recombinant ERO1A [2]): abolished the activity
16 | O=C1/C(=C/c2ccc(-c3ccccc3)o2)C(C(F)(F)F)=NN1c1cccc2ccccc12 [I24] |  |  | 8.51 | 
17 | O=C1/C(=C/c2ccc(-c3ccccc3)o2)C(C(F)(F)F)=NN1c1ccc(Cl)cc1 [I1] |  |  |  | ERO1 inhibitory activity (in words) (recombinant ERO1A [2]): inactive
18 | COc1ccccc1N1N=C(C(F)(F)F)/C(=C\c2ccc(-c3ccccc3)o2)C1=O [I27] |  |  | 8.51 | 
